Reference: US7550511B2, “Compositions that bind antiterminator RNA and assay for screening for such compositions” (Ahio University, priority 2001, dated 2009)

Tested on: 9-(2-aminopurine)-RNA II versus 9-(2-aminopurine)-RNA IV (T-box antiterminator model RNAs)
Experiment: Fluorescence assay, relative fluorescence ratio (RNA binding selectivity) at 1 mM ligand
Settings: (F-Fo) RNA II / (F-Fo) RNA IV; <1.0 preferential binding for RNA IV, >1.0 for RNA II

SMILES: NC(Cc1ccccc1)C(O)CO (stereo not shown) [Amino Alcohol 2, 3-amino-4-phenyl-butane-1,2-diol]
- relative fluorescence ratio (rounded): 0.4
